# Measured values published in US20260199343A1 (Kadmon Corporation, LLC, priority 2022, published 2026).
# Structures can show the parent of a compound that is named as a salt.
# Legend:
# C-myc protein = assay: Western blot of C-Myc in LP1 cells; assay type: cell-based, human; settings: 24 hours of treatment
# [1] = cited from earlier work
# [2] = system: MM cell lines (LP1, MM1R, MM1S, OPM2); assay: CellTiter-Glo cell viability, panel of MM cell lines; assay type: cell-based, human; settings: 8 days treatment
# Protocol: Cell viability was measured by CellTiter-Glo, Luminescent Cell Viability Assay normalized with DMSO.
# LP-1 cells = assay: Growth inhibition of LP-1 cells (CellTiterGlo / Incucyte confluency); assay type: cell-based, human; settings: LP1, 5-6 days
# Protocol: (§1) On Day 1, the cells were plated at 3,000 cells per well (50 ul) using 384w plate (Costar, 3765) pre-coated with Poly-D-Lysine, spun down at 300 g for 1 min at room temperature and transferred in Incucyte S3 (37° C.; 5% CO2; every 2 h kinetic read). […] Cells were further incubated in Incucyte S3 (Sartorius) for an additional 5-6 days at 37° C., 5% CO2 with the same kinetic readings. At the end, proliferation was measured by added CellTiterGlo (Promega) to assess cell viability or by using Incucyte measuring cell confluency over time. Cell growth was normalized to DMSO (100%) and staurosporine (Sigma; […]) 1 uM (0%)).
# MM1S cells = assay: Growth inhibition of MM1S cells (CellTiterGlo / Incucyte confluency); assay type: cell-based, human; settings: 5-6 days
# Protocol: as §1
# [3] = cited from earlier work; remark: listed apart in the source
# MOLP-8 = MOLP-8 viability, belumosudil vs Y27632 (Example 5); assay type: cell-based, human; settings: 10-40 μM (belumosudil effect starting at 10 μM), after 4 days of treatment
# Protocol: MOLP-8 (DSMZ, #ACC569) were maintained in RPMI1640 complete medium (RPMI1640 supplemented with 20% FBS—Eurobio #CVFSVF06-01 and 1% L-glutamine—Gibco #25030-081), incubated at 37° C. with 5% CO2 before being used.
# (§2) Before treatment, MM cells were centrifuged for 5 minutes at 300 g, counted, and resuspended in RPMI1640 complete medium to have 50000 cells/100 μl.
# (§3) Compounds and cells were then added to the appropriate wells of a Corning™ 96-Well Clear Ultra Low Attachment Microplate (Corning, #7007) (final volume of each well: 200 μl). […] MOLP-8 or LP-1 or RPMI-8226 or HD NK cells (50000 cells/well) were then added to the appropriate wells. The plate was then centrifuged for 1 minute at 100 g before being placed into an incubator at 37° C. with 5% CO2 for up to 4 days.
# After treatment, cells were collected and added to U bottom plates for antibody labelling. […]
# (§4) To additionally assess cell viability, DAPI (Miltenyi Biotec, #130-111-570) was added in each well before plate reading by flow cytometry. Samples were then analyzed with the MACSQuant 16 flow cytometer (Miltenyi Biotec).
# (§5) Data were analyzed with FlowJo software as shown in FIG. 3: (FIG. 3A) MOLP-8 cells excluding debris was gated, followed by gating for single cells (FIG. 3B). From the single cells, viable DAPI^neg cells were quantified (FIG. 3C).
# RPMI-8226 = RPMI-8226 viability, belumosudil vs Y27632 (Example 5); assay type: cell-based, human; settings: 10-40 μM (belumosudil effect starting at 10 μM), after 4 days of treatment
# Protocol: RPMI-8226 (ATCC, #CCL155) were maintained in RPMI1640 complete medium, incubated at 37° C. with 5% CO2 before being used.
# as §2, §3
# After treatment, cells were collected and added to U bottom plates for antibody labelling.
# Then, cells were centrifuged for 5 minutes at 300 g, the supernatant removed and 200 μl of AutoMACS Running buffer (Miltenyi Biotec, #130-091-221) added to each well. […]
# as §4, §5
# HD NK cells = assay: HD NK cell viability, belumosudil vs Y27632 (Example 5); assay type: cell-based, human; settings: 10-40 μM, after 4 days of treatment
# Source text: (§6) Healthy donor buffy coats were supplied by EFS Ile de France. Immediately after reception, the qualified buffy coats were put under gentle agitation overnight at room temperature. The following day, peripheral blood mononuclear cells (PBMCs) were isolated by Ficoll (Cytiva #17-1440-02) density gradient centrifugation. Human NK cells were purified from PBMCs with the MACSXpress Whole Blood NK cell isolation kit from Miltenyi Biotec (#130-127-695) by negative selection using manual magnetic labelling and the MACSxpress separator (Miltenyi Biotec #130-098-308). Then, purified NK cells were cultured in RPMI1640 medium supplemented with 10% foetal bovine serum (FBS) (Eurobio #CVFSVF06-01) and 1% of L-Glutamine (Gibco #25030-081). The cells were left to rest overnight at 37° C. with 5% CO2 before being used. […]
# as §4, §5
# [4] = HD NK cell viability by DAPI flow cytometry (Example 2); assay type: cell-based; settings: human, healthy donor (HD) NK cells purified from PBMCs; high concentrations 25-40 μM, after 4 days of treatment; read-out: reduction of HD NK cells viability
# Source text: as §6, with “fetal” for “foetal”, “#25030-081).” for “#25030-081). The cells were left to rest overnight at 37° C. with 5% CO2 before being used.”
# To additionally assess cell viability, DAPI (Miltenyi Biotec, #130-111-570) was added in each well before plate reading by flow cytometry. Samples were then analyzed with the MACSQuant 16 flow cytometer (Miltenyi Biotec). Data were analyzed with FlowJo software using the following strategy shown in FIGS. 3A-3D: (A) MOLP-8 cells excluding debris were gated, followed by gating for single cells (B), from single cells, viable DAPI^neg cells were quantified (C), and from DAPI^neg cells, the expression of CD38 was quantified with FITC fluorochrome (D) and expressed as median of fluorescence intensity (MFI).
# CD38 = settings: bone marrow and MM cells of patients after first treatment; cited from earlier work
molecule,measurement,setting,value
"Nc1cccc2c1C(=O)N(C1CCC(=O)NC1=O)C2=O (racemic) [pomalidomide, (RS)-4-Amino-2-(2,6-dioxo-piperidin-3-yl)-isoindoline-1,3-dione]",C-myc protein level,C-myc protein,very moderate effect
same,solubility in all pH solutions,[1]; all pH solutions,about 0.01 mg/mL
same,solubility into organic solvents,[1]; organic solvents,limited to low solubility
same,growth inhibition of MM cell lines,[2],growth inhibition in all of these MM cell lines except LP1
"CC(C)NC(=O)COc1cccc(-c2nc(Nc3ccc4[nH]ncc4c3)c3ccccc3n2)c1 [Belumosudil mesylate, 2-{3-[4-(1H-indazol-5-ylamino)-2-quinazolinyl]phenoxy}-N-(propan-2-yl) acetamide methanesulfonate (1:1)]",solubility in water,[1],practically insoluble in water
"C[C@@H]1C[C@H]2[C@@H]3CCC4=CC(=O)C=C[C@]4(C)[C@@]3(F)[C@@H](O)C[C@]2(C)[C@@]1(O)C(=O)CO [Dexamethasone, 9-fluoro-11β,17,21-trihydroxy-16α-methylpregna-1,4-diene-3,20-dione]","growth inhibition, single agent",LP-1 cells,single agent growth inhibition activity
same,"growth inhibition, single agent",MM1S cells,single agent growth inhibition activity
same,stability in air,[3],stable in air
same,solubility in water,[1],practically insoluble in water
C[C@@H](N)[C@H]1CC[C@H](C(=O)Nc2ccncc2)CC1 [Y27632],viability of MOLP-8 (number of cells and % of live cells),MOLP-8,does not impact viability
same,viability of RPMI-8226 (number of cells and % of live cells),RPMI-8226,does not impact viability
same,HD NK cell viability,HD NK cells,neither belumosudil nor Y27632 impact HD NK cell viability
"CC(C)NC(=O)COc1cccc(-c2nc(Nc3ccc4[nH]ncc4c3)c3ccccc3n2)c1 [belumosudil, 2-{3-[4-(1H-indazol-5-ylamino)-2-quinazolinyl]phenoxy}-N-(propan-2-yl) acetamide]",cytotoxicity at 4 days,[4],≤ 10%
same,IC50,"[2]; Homo sapiens, 192 h, LP1, MM1R, MM1S, OPM2, normalized with DMSO, read-out: IC50 of MM cell line growth inhibition",1 to 7 µM
daratumumab: anti-CD38 antibody,CD38 expression,CD38,reduced
